ChEMBL document CHEMBL3639115, “Benzimidazole inhibitors of leukotriene production” (2014)

Target: T1, Arachidonate 5-lipoxygenase-activating protein (Homo sapiens, UniProt P20292)
T1 sequence (P20292 whole entry): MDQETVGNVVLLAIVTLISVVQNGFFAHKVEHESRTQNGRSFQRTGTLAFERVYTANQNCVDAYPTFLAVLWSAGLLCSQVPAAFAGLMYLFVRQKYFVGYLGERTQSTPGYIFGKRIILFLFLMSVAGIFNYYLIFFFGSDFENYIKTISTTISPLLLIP
Assay: Scintillation Proximity Assay: Compounds are assessed for the ability to bind to FLAP in a binding assay that measures compound-specific displacement of an iodinated (125I) FLAP inhibitor via a Scintillation Proximity Assay format (adapted from S. Charleson et al., Mol. Pharmacol., 1992, 41, 873-879).Cell pellets produced from sf9 insect cells expressing recombinant human FLAP protein are resuspended in buffer A [15 mM Tris-HCl (pH 7.5), 2 mM MgCl2, 0.3 mM EDTA, 1 mM PMSF]. The cells are lysed with a Dounce homogenizer and the material is centrifuged at 10,000xg for 10 minutes. The supernatant is then collected and centrifuged at 100,000xg for 60 minutes. To prepare membrane protein for an assay, an aliquot of the 100,000xg pellet is resuspended in 1 ml of buffer A, Dounce homogenized, and finally subjected to polytron mixing (30 seconds). Membrane protein (25 ul, 5 ug) is mixed with WGA SPA beads (Amersham) and stirred for 1 h. To an assay plate (Perkin Elmer FlexiPlate) is added 25 ul of test compound.

IC50: 35.4 nM
Structure (SMILES): CC(C)(C)n1c(-c2ccccc2C(N)=O)nc2cc(-c3cnc(N)nc3)ccc21
